Measured values: EP4786487A1, “PEPTIDE” (Peptidream Inc, priority 2023, dated 2025)
Positions of bridges follow the written chain, without caps; N, C: chain ends. Non-standard residues stand in square brackets, D forms with d. Residues, ends and D or L forms follow the SMILES beside them. Phe(4-COOH) = N[C@@H](Cc1ccc(C(=O)O)cc1)C(=O)O; Trp(7-aza) = N[C@@H](Cc1c[nH]c2ncccc12)C(=O)O; 3Pal(6-NH2) = Nc1ccc(C[C@H](N)C(=O)O)cn1; Gly(N(CH2)3COOH) = O=C(O)CCCNCC(=O)O; NMeF = CN[C@@H](Cc1ccccc1)C(=O)O; 3Pal = N[C@@H](Cc1cccnc1)C(=O)O; 4Pal = N[C@@H](Cc1ccncc1)C(=O)O; NMeA = CN[C@@H](C)C(=O)O; Sar = CNCC(=O)O

How the values were obtained:
Myostatin = molecular target: T1, Myostatin (Homo sapiens, UniProt O14793); experiment: HepG2 reporter gene assay, Evaluation Procedure (2): 2-concentrations assay, myostatin inhibition; assay type: cell-based; conditions: Myostatin 10 ng/mL, HepG2; for inhibition at 0.03 µM: peptide 30nM, read-out: Myostatin Inhibition 30nM; for inhibition at 0.1 µM: peptide 100nM, read-out: Myostatin Inhibition 100nM
T1 construct: active myostatin (also called mature myostatin) is a homodimer consisting of two C-terminal growth factor domains; purchased R&D systems 788-G8/CF
T1 sequence (O14793 267-375): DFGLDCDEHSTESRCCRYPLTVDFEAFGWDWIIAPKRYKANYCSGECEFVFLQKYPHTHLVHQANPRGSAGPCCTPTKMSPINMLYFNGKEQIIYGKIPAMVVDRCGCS
Protocol: (§1) The pGL3(CAGA)12-luc plasmid, namely a pGL3 vector (E1751, Promega) having a luciferase gene inserted downstream of a promoter sequence with 12 CAGA repeats attached, was transfected into HepG2 cell line (HB-8065, ATCC). The culture of HepG2 cell line (HB-8065, ATCC) was performed as in the Evaluation Procedure (1).
(§2) Myostatin (788-G8/CF, R&D systems) or GDF-11 (1958-GD-G8/CF, R&D systems) was added at a final concentration of 10 ng/mL. […] At this time, blank wells, in which neither myostatin, GDF-11, nor each peptide was added, were also prepared and incubated in a CO2 incubator (37°C, 5% CO2) for 20 to 24 hours.
(§3) The medium containing the cells was removed, and a mixture containing PBS (14190144, Thermo) and a chromogenic substrate One-Glo Luciferase Assay System (E6120, Promega) at a ratio of 1:1 was added to each well at 100 µL/well. This was stirred with a plate shaker for 5 min and transferred to a 384-well plate (3570, Corning) at a volume of 20 µL/well.
(§4) The plate was centrifuged at 1,000 × g for 1 min and the luminescence signal (700 nm luminescence) was measured using a plate reader (Envision 2104, PerkinElmer). Based on the measurement results, the inhibition rate at each peptide concentration was calculated. […]

GDF-11 = molecular target: T2, GDF-11 (Homo sapiens, UniProt O95390); experiment: HepG2 reporter gene assay, Evaluation Procedure (2): 2-concentrations assay, GDF-11 inhibition; assay type: cell-based; conditions: GDF-11 10 ng/mL; for inhibition at 0.03 µM: HepG2, peptide 30nM, read-out: GDF11 Inhibition 30nM; for inhibition at 0.1 µM: HepG2, peptide 100nM, read-out: GDF11 Inhibition 100nM
T2 construct: purchased R&D systems 1958-GD-G8/CF
T2 sequence (O95390 299-407): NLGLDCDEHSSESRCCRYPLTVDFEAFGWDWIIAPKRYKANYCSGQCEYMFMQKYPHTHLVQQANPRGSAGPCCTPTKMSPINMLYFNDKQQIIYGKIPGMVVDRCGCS
Protocol: as §1, §2, §3, §4

Compound	inhibition at 0.03 µM (Myostatin) [%]	inhibition at 0.1 µM (Myostatin) [%]	inhibition at 0.03 µM (GDF-11) [%]	inhibition at 0.1 µM (GDF-11) [%]
CC[C@H](C)[C@@H]1NC(=O)[C@H](Cc2ccccc2)N(C)C(=O)[C@H](Cc2ccc(O)cc2)NC(=O)[C@H](Cc2c[nH]c3ccccc23)NC(=O)[C@H](C)NC(=O)CN(CCCC(=O)O)C(=O)CSC[C@H](C(N)=O)NC(=O)[C@H](Cc2ccccc2)N(C)C(=O)[C@H](C)N(C)C(=O)[C@H](CC(C)C)NC(=O)[C@H](Cc2ccccc2)N(C)C(=O)[C@H](CCCNC(=N)N)NC(=O)[C@H](Cc2ccncc2)NC(=O)[C@H](Cc2ccc(O)cc2)NC(=O)CN(C)C1=O [Myostatin_99_Variant_17] ({CH2CO}-[Gly(N(CH2)3COOH)]AWY[NMeF]I[Sar]Y[4Pal]R[NMeF]L[NMeA][NMeF][dC]-NH2; thioether N-15)	37	72	0	14
CC[C@H](C)[C@@H]1NC(=O)[C@H](Cc2ccccc2)N(C)C(=O)[C@H](Cc2ccc(O)cc2)NC(=O)[C@H](Cc2c[nH]c3ccccc23)NC(=O)[C@H](C)NC(=O)CN(CCCC(=O)O)C(=O)CSC[C@H](C(N)=O)NC(=O)[C@H](Cc2ccccc2)N(C)C(=O)[C@H](C)N(C)C(=O)[C@H](CC(C)C)NC(=O)[C@H](Cc2ccccc2)N(C)C(=O)[C@H](CCCNC(=N)N)NC(=O)[C@H](Cc2ccc(C(=O)O)cc2)NC(=O)[C@H](Cc2ccncc2)NC(=O)CN(C)C1=O [Myostatin_99_Variant_18] ({CH2CO}-[Gly(N(CH2)3COOH)]AWY[NMeF]I[Sar][4Pal][Phe(4-COOH)]R[NMeF]L[NMeA][NMeF][dC]-NH2; thioether N-15)	56	80	0	0
CC[C@H](C)[C@@H]1NC(=O)[C@H](Cc2ccccc2)N(C)C(=O)[C@H](Cc2ccc(O)cc2)NC(=O)[C@H](Cc2c[nH]c3ncccc23)NC(=O)[C@H](C)NC(=O)CN(CCCC(=O)O)C(=O)CSC[C@H](C(N)=O)NC(=O)[C@H](Cc2ccccc2)N(C)C(=O)[C@H](C)N(C)C(=O)[C@H](CC(C)C)NC(=O)[C@H](Cc2ccccc2)N(C)C(=O)[C@H](CCCNC(=N)N)NC(=O)[C@H](Cc2ccc(C(=O)O)cc2)NC(=O)[C@H](Cc2ccccc2)NC(=O)CN(C)C1=O [Myostatin_99_Variant_20] ({CH2CO}-[Gly(N(CH2)3COOH)]A[Trp(7-aza)]Y[NMeF]I[Sar]F[Phe(4-COOH)]R[NMeF]L[NMeA][NMeF][dC]-NH2; thioether N-15)	62	89	0	0
CC[C@H](C)[C@@H]1NC(=O)[C@H](Cc2ccccc2)N(C)C(=O)[C@H](Cc2ccc(O)cc2)NC(=O)[C@H](Cc2c[nH]c3ncccc23)NC(=O)[C@H](C)NC(=O)CN(CCCC(=O)O)C(=O)CSC[C@H](C(N)=O)NC(=O)[C@H](Cc2ccccc2)N(C)C(=O)[C@H](C)N(C)C(=O)[C@H](CC(C)C)NC(=O)[C@H](Cc2ccccc2)N(C)C(=O)[C@H](CCCNC(=N)N)NC(=O)[C@H](Cc2ccc(C(=O)O)cc2)NC(=O)[C@H](Cc2ccncc2)NC(=O)CN(C)C1=O [Myostatin_99_Variant_21] ({CH2CO}-[Gly(N(CH2)3COOH)]A[Trp(7-aza)]Y[NMeF]I[Sar][4Pal][Phe(4-COOH)]R[NMeF]L[NMeA][NMeF][dC]-NH2; thioether N-15)	40	76	0	0
CC[C@H](C)[C@@H]1NC(=O)[C@H](Cc2ccccc2)N(C)C(=O)[C@H](Cc2ccc(O)cc2)NC(=O)[C@H](Cc2c[nH]c3ncccc23)NC(=O)[C@H](C)NC(=O)CN(CCCC(=O)O)C(=O)CSC[C@H](C(N)=O)NC(=O)[C@H](Cc2ccccc2)N(C)C(=O)[C@H](C)N(C)C(=O)[C@H](CC(C)C)NC(=O)[C@H](Cc2ccccc2)N(C)C(=O)[C@H](CCCNC(=N)N)NC(=O)[C@H](Cc2cccnc2)NC(=O)[C@H](Cc2ccccc2)NC(=O)CN(C)C1=O [Myostatin_99_Variant_22] ({CH2CO}-[Gly(N(CH2)3COOH)]A[Trp(7-aza)]Y[NMeF]I[Sar]F[3Pal]R[NMeF]L[NMeA][NMeF][dC]-NH2; thioether N-15)	45	72	0	0

Further lines, results first:

inhibition at 0.03 µM (Myostatin) [%]	inhibition at 0.1 µM (Myostatin) [%]	inhibition at 0.03 µM (GDF-11) [%]	inhibition at 0.1 µM (GDF-11) [%]	Compound
32	71	0	0	CC[C@H](C)[C@@H]1NC(=O)[C@H](Cc2ccccc2)N(C)C(=O)[C@H](Cc2ccc(O)cc2)NC(=O)[C@H](Cc2c[nH]c3ccccc23)NC(=O)[C@H](C)NC(=O)CN(CCCC(=O)O)C(=O)CSC[C@H](C(N)=O)NC(=O)[C@H](Cc2ccccc2)N(C)C(=O)[C@H](C)N(C)C(=O)[C@H](CC(C)C)NC(=O)[C@H](Cc2ccccc2)N(C)C(=O)[C@H](CCCNC(=N)N)NC(=O)[C@H](Cc2cccnc2)NC(=O)[C@H](Cc2ccncc2)NC(=O)CN(C)C1=O [Myostatin_99_Variant_23] ({CH2CO}-[Gly(N(CH2)3COOH)]AWY[NMeF]I[Sar][4Pal][3Pal]R[NMeF]L[NMeA][NMeF][dC]-NH2; thioether N-15)
1	54	0	0	CC[C@H](C)[C@@H]1NC(=O)[C@H](Cc2ccccc2)N(C)C(=O)[C@H](Cc2ccc(N)nc2)NC(=O)[C@H](Cc2c[nH]c3ncccc23)NC(=O)[C@H](C)NC(=O)CN(CCCC(=O)O)C(=O)CSC[C@H](C(N)=O)NC(=O)[C@H](Cc2ccccc2)N(C)C(=O)[C@H](C)N(C)C(=O)[C@H](CC(C)C)NC(=O)[C@H](Cc2ccccc2)N(C)C(=O)[C@H](CCCNC(=N)N)NC(=O)[C@H](Cc2ccc(C(=O)O)cc2)NC(=O)[C@H](Cc2ccccc2)NC(=O)CN(C)C1=O [Myostatin_99_Variant_24] ({CH2CO}-[Gly(N(CH2)3COOH)]A[Trp(7-aza)][3Pal(6-NH2)][NMeF]I[Sar]F[Phe(4-COOH)]R[NMeF]L[NMeA][NMeF][dC]-NH2; thioether N-15)
20	50	0	0	CC[C@H](C)[C@@H]1NC(=O)[C@H](Cc2ccccc2)N(C)C(=O)[C@H](Cc2ccc(N)nc2)NC(=O)[C@H](Cc2c[nH]c3ccccc23)NC(=O)[C@H](C)NC(=O)CN(CCCC(=O)O)C(=O)CSC[C@H](C(N)=O)NC(=O)[C@H](Cc2ccccc2)N(C)C(=O)[C@H](C)N(C)C(=O)[C@H](CC(C)C)NC(=O)[C@H](Cc2ccccc2)N(C)C(=O)[C@H](CCCNC(=N)N)NC(=O)[C@H](Cc2ccc(C(=O)O)cc2)NC(=O)[C@H](Cc2ccncc2)NC(=O)CN(C)C1=O [Myostatin_99_Variant_25] ({CH2CO}-[Gly(N(CH2)3COOH)]AW[3Pal(6-NH2)][NMeF]I[Sar][4Pal][Phe(4-COOH)]R[NMeF]L[NMeA][NMeF][dC]-NH2; thioether N-15)
26	50	0	0	CC[C@H](C)[C@@H]1NC(=O)[C@H](Cc2ccccc2)N(C)C(=O)[C@H](Cc2ccc(N)nc2)NC(=O)[C@H](Cc2c[nH]c3ccccc23)NC(=O)[C@H](C)NC(=O)CN(CCCC(=O)O)C(=O)CSC[C@H](C(N)=O)NC(=O)[C@H](Cc2ccccc2)N(C)C(=O)[C@H](C)N(C)C(=O)[C@H](CC(C)C)NC(=O)[C@H](Cc2ccccc2)N(C)C(=O)[C@H](CCCNC(=N)N)NC(=O)[C@H](Cc2cccnc2)NC(=O)[C@H](Cc2ccccc2)NC(=O)CN(C)C1=O [Myostatin_99_Variant_26] ({CH2CO}-[Gly(N(CH2)3COOH)]AW[3Pal(6-NH2)][NMeF]I[Sar]F[3Pal]R[NMeF]L[NMeA][NMeF][dC]-NH2; thioether N-15)
24	54	0	0	CC[C@H](C)[C@@H]1NC(=O)[C@H](Cc2ccccc2)N(C)C(=O)[C@H](Cc2ccc(O)cc2)NC(=O)[C@H](Cc2c[nH]c3ccccc23)NC(=O)[C@H](C)NC(=O)CN(CCCC(=O)O)C(=O)CSC[C@H](C(=O)NCC(=O)N[C@H](CCC(=O)O)C(=O)NCC(=O)N[C@H](CCCCN)C(=O)O)NC(=O)[C@H](Cc2ccccc2)N(C)C(=O)[C@H](C)N(C)C(=O)[C@H](CC(C)C)NC(=O)[C@H](Cc2ccccc2)N(C)C(=O)[C@H](CCCNC(=N)N)NC(=O)[C@H](Cc2ccc(C(=O)O)cc2)NC(=O)[C@H](Cc2ccc(O)cc2)NC(=O)CN(C)C1=O [Myostatin_99_v27] ({CH2CO}-[Gly(N(CH2)3COOH)]AWY[NMeF]I[Sar]Y[Phe(4-COOH)]R[NMeF]L[NMeA][NMeF][dC]G[dE]G[dK]-OH; thioether N-15)
